Measured values: US20130071400A1, “LINGO binding molecules and Pharmaceutical Use Thereof” (NOVARTIS AG, priority 2006, published 2013)

Tested on: postnatal day 7 rat cerebellar granule neurons (CGN)
Assay: Neurite outgrowth inhibition assay on spinal cord myelin
Assay type: cell-based
Procedure: A) P7 CGN cells are incubated for 16 hr on wells coated without spinal cord myelin (no SC, white bars) or wells coated with spinal cord myelin in the absence (SC, red bars) or presence of anti-LINGO-1 IgG4 antibodies, a control anti-lysozyme IgG4 antibody 3207 (green bars) or […] of the ROCK inhibitor Y27632 (yellow bar). […] The experiment is performed in three 96 well plates with an SC and no SC condition per plate to which the effects of the antibodies on that plate are compared and mean neurite length per neuron (μm) is calculated for 500 neurons per well in replicates of 10. The percentage inhibition (white text) is calculated as the percentile difference in mean neurite length/neuron between cells plated on wells coated with and without SC. The percentage disinhibition (black italic text) is calculated as the difference in mean neurite length between cells plated on SC in the presence and absence of anti-LINGO-1 antibody as a percentile of the difference between cells plated on wells coated with and without SC. *p<0.05, **p<0.01 (one way ANOVA, Holm-Sidak comparison to mean neurite length/neuron for cells plated on spinal cord myelin in the absence of antibody).
A) P7 CGN cells are incubated for 8 hr on wells coated without spinal cord myelin (no SC, white bars) or wells coated with spinal cord myelin in the absence (SC, red bars) or presence of anti-LINGO-1 IgG4 antibodies or a control anti-lysozyme IgG4 antibody 3207. The experiment is performed in three 96 well plates with an SC and no SC condition per plate to which the effects of the antibodies on that plate are compared and mean neurite length per neuron (μm) is calculated for 500 neurons per well in replicates of 10. The percentage inhibition (white text) and disinhibition (black italic text) is calculated as above. **p<0.01 (one way ANOVA, Holm-Sidak comparison to mean neurite length/neuron for cells plated on spinal cord myelin in the absence of antibody).
P7 CGN cells are incubated for 8 hr on wells coated without spinal cord myelin (no SC) or wells coated with spinal cord myelin in the absence (SC) or presence of the indicated concentrations of anti-LINGO-1 IgG4 antibodies 4784 or 4785, a control anti-lysozyme IgG4 antibody 3207 or 1 μM Y27632 (ROCK). The experiment is performed in three 96 well plates with an SC and no SC condition per plate to which the effects of the antibodies on that plate are compared and mean neurite length per neuron (μm) is calculated for 500 neurons per well in replicates of 10. The percentage inhibition (white text) and disinhibition (black italic text) is calculated as above. *p<0.05, **p<0.01 (one way ANOVA, Holm-Sidak comparison to mean neurite length/neuron for cells plated on spinal cord myelin in the absence of antibody). […]

C[C@@H](N)[C@H]1CC[C@H](C(=O)Nc2ccncc2)CC1 [Y27632, reference compound]
disinhibition of spinal cord myelin (1 μM Y27632, 8 hr incubation (FIG. 4)): 65-74%
disinhibition of spinal cord myelin (neurite outgrowth) (1 μm Y27632, 16 hr incubation (FIG. 2), compared to 4784 and 4785): greater level of disinhibition
